Experimental data published in patent US20140162285A1, “Methods of Modulating Vesicular Trafficking” (The General Hospital Corporation, priority 2009, published 2014).
Peptide text beside a SMILES is read from it. * marks the point of attachment. Biotin = O=C1N[C@H]2[C@H](CS[C@H]2CCCCC(=O)*)N1

T1: GST-ARNO(wt) (Homo sapiens, UniProt Q99418)
T1 construct: i) 1-400aa, full length ARNO(wt); made in house; host or cells: E. coli BL21(DE3)
T1 sequence (Q99418 1-400): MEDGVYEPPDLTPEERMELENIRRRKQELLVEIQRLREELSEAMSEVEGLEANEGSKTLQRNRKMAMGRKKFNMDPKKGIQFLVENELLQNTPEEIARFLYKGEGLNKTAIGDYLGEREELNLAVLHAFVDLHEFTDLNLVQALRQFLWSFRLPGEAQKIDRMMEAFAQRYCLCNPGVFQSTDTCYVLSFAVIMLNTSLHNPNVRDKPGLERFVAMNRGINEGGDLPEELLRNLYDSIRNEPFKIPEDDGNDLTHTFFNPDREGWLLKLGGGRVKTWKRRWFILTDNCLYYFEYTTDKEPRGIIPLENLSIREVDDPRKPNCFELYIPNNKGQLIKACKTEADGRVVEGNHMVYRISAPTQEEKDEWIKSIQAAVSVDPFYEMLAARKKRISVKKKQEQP

T2: ARNO CC-domain (Homo sapiens, UniProt Q99418)
T2 construct: ii) 1-60aa, coiled-coil (CC) domain; made in house; host or cells: E. coli BL21(DE3)
T2 sequence (Q99418 1-60): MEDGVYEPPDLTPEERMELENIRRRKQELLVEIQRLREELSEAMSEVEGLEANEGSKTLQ


Legend:
GST-ARNO(wt) = molecular target: T1, GST-ARNO(wt); assay: a2N-derived peptide pull-down assay with GST-ARNO(wt); format: binding; design: key to interaction with ARNO (asterisk mark in Table 1): The interacting peptides are indicated in bold with an asterisk (*)
Protocol: FIG. 2A is an image of a Western blot showing the results of an a2N-derived peptide pull-down assay. The indicated a2N-derived peptides were immobilized on streptavidin-beads and incubated with purified recombinant GST-ARNO(wt). Interacting complexes were eluted and analyzed by Western blotting using monoclonal anti-GST antibodies.
FIG. 2B is an image of a Western blot showing the results of a pull-down assay with selected a2N-derived interacting peptides incubated with either GST (negative control) or GST-ARNO(wt). The first two lanes show the patterns obtained when either GST-only (lane 1) or GST-ARNO(wt) (lane 2) were loaded onto the gel.
Peptides were synthesized, purified by HPLC and analyzed by mass spectrometry in the MGH Peptide/Protein Core Facility. All a2N-derived peptides were synthesized with a biotin-tag on the N-terminus for immobilization on streptavidin-agarose beads and with an additional C-terminal cysteine residue for immobilization on beads using sulfhydryl-specific crosslinkers. A peptide corresponding to the PB-domain of ARNO was synthesized containing either a non-phosphorylated or a phosphorylated Ser392 residue. Peptide stock solutions were prepared in DMSO at 5 mM concentration and stored at −20° C. […]

ARNO CC-domain = molecular target: T2, ARNO CC-domain; assay: GST pull-down of in vitro translated a2N with ARNO CC-domain; format: binding; conditions: Western blot anti-a2N
Protocol: The purified recombinant GST-ARNO(wt) and GST-tagged ARNO domain constructs ([…]) were incubated with 10 μl of in vitro translated 6His-a2N recombinant protein at 4° C. for 2 hours in 500 μl of binding buffer (10 mM HEPES, 1 mM EDTA, 1 mM DTT, 100 mM NaCl, 10% glycerol, 0.1% NP-40) with gentle rotation. Then the interacting recombinant proteins were immobilized on glutathione beads by incubation with 50 μl of 50% glutathione Sepharose 4B slurry for 2 hours at 4° C. The beads were collected by centrifugation and washed 5 times with 500 μl ice-cold binding buffer. Interacting proteins were eluted by boiling in SDS-PAGE sample buffer for 10 min at 95° C., resolved by SDS-PAGE and analyzed by Western blotting using polyclonal anti-a2N antibodies. […]
To examine the ability of these well-defined and functionally distinct domains of ARNO to interact with a2N1-402, full-length ARNO(wt) and its four domains were cloned separately for bacterial expression of recombinant proteins (FIG. 3). […] Interacting proteins were detected by western blot analysis with a2-specific antibodies as described above.

Row | interaction of a2N-derived peptide with GST-ARNO(wt) in pull-down (GST-ARNO(wt); Western blot anti-GST, GST-only as control) | interaction with ARNO (asterisk mark in Table 1) (GST-ARNO(wt); biotin-tagged peptides on streptavidin beads) | interaction of a2N with ARNO CC-domain (ARNO CC-domain) | Molecule
1 | specific interaction | Bio-MGSLFRSE SMCLAQLFL-Cys * |  | CSCC[C@H](NC(=O)CCCC[C@@H]1SC[C@@H]2NC(=O)N[C@@H]21)C(=O)NCC(=O)N[C@@H](CO)C(=O)N[C@@H](CC(C)C)C(=O)N[C@@H](Cc1ccccc1)C(=O)N[C@@H](CCCNC(=N)N)C(=O)N[C@@H](CO)C(=O)N[C@@H](CCC(=O)O)C(=O)N[C@@H](CO)C(=O)N[C@@H](CCSC)C(=O)N[C@@H](CS)C(=O)N[C@@H](CC(C)C)C(=O)N[C@@H](C)C(=O)N[C@@H](CCC(N)=O)C(=O)N[C@@H](CC(C)C)C(=O)N[C@@H](Cc1ccccc1)C(=O)N[C@@H](CC(C)C)C(=O)N[C@@H](CS)C(=O)O [a2N-01, Bio-MGSLFRSE SMCLAQLFL-Cys] (Biotin-MGSLFRSESMCLAQLFLC-OH; N-terminus and C-terminus assumed)
2 |  |  | no interaction | a2N: recombinant N-terminal cytosolic tail, amino acid residues 1-402 of mouse V-ATPase a2-subunit (protein, left off: small tags and cut ends, recombinant N-terminal cytosolic tail, amino acid residues 1-402 of mouse V-ATPase a2-subunit) MGSLFRSESMCLAQLFLQSGTAYECLSALGEKGLVQFRDLNQNVSSFQRKFVGEVKRCEELERILVYLVQEITRADIPLPEGEASPPAPPLKHVLEMQEQLQKLEVELREVTKNKEKLRKNLLELVEYTHMLRVTKTFLKRNVEFEPTYEEFPALENDSLLDYSCMQRLGAKLGFVSGLIQQGRVEAFERMLWRACKGYTIVTYAELDECLEDPETGEVIKWYVFLISFWGEQIGHKVKKICDCYHCHIYPYPNTAEERREIQEGLNTRIQDLYTVLHKTEDYLRQVLCKAAESVCSRVVQVRKMKAIYHMLNMCSFDVTNKCLIAEVWCPEVDLPGLRRALEEGSRESGATIPSFMNTIPTKETPPTLIRTNKFTEGFQNIVDAYGVGSYREVNPALFTII
